Series [1] in a line: Plasma concentration by LC-MS/MS in I/R rats. Also noted: species or system Male OFA Sprague-dawley rats. As to conditions: rat, in vivo; 25 mg/kg/day (12.5 mg/kg BID) by force-feeding, 4 weeks; blood 90 minutes after last oral administration; ± SD. From the text:
• Figure 1 is a combination of two graphs showing left atrium (LA) area after one month of treatment with DTI Dabigatran (A) or S35792 (B). Vehicle (V) is 60% H2O/40% PEG 300 for dabigatran and saline for S35972. Treatment of rats started just after thoracotomy without (Sham) or with occlusion of left coronary artery followed by reperfusion (I/R). Results are presented as mean +/- S.E.M, *P<0.05, **P<0.01 and *** P<0.001 vs Sham; ^##P<0.01 and ^###P<0.001 vs untreated I/R. • Figure 2 is a combination of graphs showing left ventricular end-diastolic (LVED) diameter and fractional shortening (FS) after one month of treatment with Dabigatran (A) or S35792 (B). Vehicle (V) is 60% H2O/40% PEG 300 for dabigatran and saline for S35972. Treatment of rats started just after thoracotomy without (Sham) or with occlusion of left coronary artery followed by reperfusion (I/R). Results are presented as mean +/- S.E.M. * P<0.05; ** P<0.001, *** P<0.001 vs Sham; #P<0.05 vs untreated I/R. • Figure 3 is a combination of two graphs showing thrombin time (TT), which reflects anticoagulant activity, and plasma concentrations of Dabigatran (A) and S35792 (B) in rats after throracotomy with occlusion of left coronary artery followed by reperfusion (I/R). Vehicle (V) is 60% H2O/40% PEG 300 for dabigatran and saline for S35972. […] DTI plasma levels are quantified using LC-MS/MS. TT are expressed as mean +/- S.E.M with reference to the mean value of sham animals that underwent thoracotomy only. *** P<0.001 vs untreated I/R. • Figure 4 is a combination of three graphs showing left atrium (LA) area (A) and diameter (B) and left ventricle end-diastolic (LVED) diameter (C) after two months of treatment with S35972. […] LA area was measured by bidimensional echocardiography. LA and LVED diameters were measured in time-motion mode. […] AF duration is measured as the time between the end of the electric stimulation and the return to sinusoidal rhythm. […] Expression of mRNA was measured with real-time qPCR. […] Expression of mRNA was measured with real-time qPCR. […]

Another series deals with blood coagulation. Put plainly: Thrombin time (TT) on blood collected by cardiac puncture at sacrifice of I/R rats. The series is classed as in vivo, Male OFA Sprague-dawley rats. Conditions: 25 mg/kg/day (12.5 mg/kg BID) by force-feeding; with reference to the mean value of sham animals. An excerpt:
• Figure 1 is a combination of two graphs showing left atrium (LA) area after one month of treatment with DTI Dabigatran (A) or S35792 (B). Vehicle (V) is 60% H2O/40% PEG 300 for dabigatran and saline for S35972. Treatment of rats started just after thoracotomy without (Sham) or with occlusion of left coronary artery followed by reperfusion (I/R). […] Vehicle (V) is 60% H2O/40% PEG 300 for dabigatran and saline for S35972. Treatment of rats started just after thoracotomy without (Sham) or with occlusion of left coronary artery followed by reperfusion (I/R). Results are presented as mean +/- S.E.M. * P<0.05; ** P<0.001, *** P<0.001 vs Sham; #P<0.05 vs untreated I/R. • Figure 3 is a combination of two graphs showing thrombin time (TT), which reflects anticoagulant activity, and plasma concentrations of Dabigatran (A) and S35792 (B) in rats after throracotomy with occlusion of left coronary artery followed by reperfusion (I/R). Vehicle (V) is 60% H2O/40% PEG 300 for dabigatran and saline for S35972. […] DTI plasma levels are quantified using LC-MS/MS. TT are expressed as mean +/- S.E.M with reference to the mean value of sham animals that underwent thoracotomy only. *** P<0.001 vs untreated I/R. • Figure 4 is a combination of three graphs showing left atrium (LA) area (A) and diameter (B) and left ventricle end-diastolic (LVED) diameter (C) after two months of treatment with S35972. […] LA area was measured by bidimensional echocardiography. LA and LVED diameters were measured in time-motion mode. […] AF duration is measured as the time between the end of the electric stimulation and the return to sinusoidal rhythm. […] Expression of mRNA was measured with real-time qPCR. […] Expression of mRNA was measured with real-time qPCR. […] Expression of mRNA was measured with real-time qPCR. […] LA area was measured by bidimensional echocardiography. LVED and LA diameters were measured in time-motion mode. […] AF duration is measured as the time between the end of the electric stimulation and return to sinusoidal rhythm. […]

Turning to `[H]/N=C(/N)c1ccc(NCc2nc3cc(C(=O)N(CCC(=O)O)c4ccccn4)ccc3n2C)cc1` [dabigatran, reference compound], in series [1], the concentration at 1.5 h worked out at 49.2 ± 19.3 ng/mL. Also, in the series on blood coagulation, the “thrombin time increases by a factor” value was 8.

The values are drawn from patent EP3072514A1, “Novel oral anticoagulants (NOACs) for preventing development and aggravation of atrial fibrillation” (Université Pierre et Marie Curie - Paris 6 (UPMC), priority 2015, dated 2016).
